Results: patent US20250197407A1 (Jazz Pharmaceuticals Ireland Limited, priority 2022, published 2025)

Target: SOS1/KRAS WT (Homo sapiens (Human), UniProt Q07889)
Assay: SOS1/KRAS WT HTRF binding assay (FRET-based protein-protein interaction)
Details: inhibition of His6-SOS1 (aa564-1049, 40 nM) binding to GST-KRAS-WT (aa1-188, 40 nM); at least two independent replicates; read-out: SOS1/KRAS WT HTRF Binding assay pIC50 (converted)
In short: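 GST-KRAS WT (aa1-188, 40 nM) and His6-SOS1 exchange domain (aa564-1049, 40 nM) were incubated 60 min at room temperature with compound dose response in HEPES pH7.3 buffer with 10 mM EDTA and 100 mM KF. Anti-GST-Eu(K)/anti-6His-XL665 HTRF was read after 4 hr, and IC50 came from a four-parameter fit (≥2 replicates).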

Sequence of SOS1/KRAS WT (Q07889 564-1049): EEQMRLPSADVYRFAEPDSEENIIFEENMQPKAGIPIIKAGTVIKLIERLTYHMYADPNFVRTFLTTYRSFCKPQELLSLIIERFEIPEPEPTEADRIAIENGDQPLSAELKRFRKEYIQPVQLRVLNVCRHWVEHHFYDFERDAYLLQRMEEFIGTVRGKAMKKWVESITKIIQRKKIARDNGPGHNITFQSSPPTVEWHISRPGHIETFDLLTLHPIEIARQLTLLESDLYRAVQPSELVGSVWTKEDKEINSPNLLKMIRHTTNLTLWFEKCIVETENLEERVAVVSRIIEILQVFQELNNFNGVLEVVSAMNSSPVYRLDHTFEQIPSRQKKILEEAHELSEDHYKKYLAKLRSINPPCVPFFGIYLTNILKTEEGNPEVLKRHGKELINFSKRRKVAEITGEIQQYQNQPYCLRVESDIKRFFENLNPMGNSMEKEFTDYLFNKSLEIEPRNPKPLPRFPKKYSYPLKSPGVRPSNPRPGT

Row | IC50 | Structure (SMILES)
1 | 15.8 nM | COCC1(C)C(=O)N(C2CC2)c2cc3c(N[C@H](C)c4cccc(C(F)(F)C(C)(C)O)c4C)nnc(C)c3cc21 (stereo partly drawn) [Compound 137, 1-cyclopropyl-8-[[(1R)-1-[3-(1,1-difluoro-2-hydroxy-2-methyl-propyl)-2-methyl-phenyl]ethyl]amino]-3-(methoxymethyl)-3,5-dimethyl-pyrrolo[3,2-g]phthalazin-2-one]
2 | 11.2 nM | Cc1nnc(N[C@H](C)c2cccc(C(F)(F)C(C)(C)O)c2)c2cc3c(cc12)C(C)(C)C(=O)N3C [Compound 77, 1,3,3,5-tetramethyl-8-[[(1R)-1-[3-(1,1-difluoro-2-hydroxy-2-methyl-propyl)phenyl]ethyl]amino]pyrrolo [2,3-g]phthalazin-2-one]
3 | 8.51 nM | Cc1nnc(N[C@H](C)c2cccc(C(F)(F)C(C)(C)O)c2F)c2cc3c(cc12)C1(CCCC1)C(=O)N3C [Compound 194, 1′,5′-dimethyl-8′-[[(1R)-1-[3-(1,1-difluoro-2-hydroxy-2-methyl-propyl)-2-fluoro-phenyl]ethyl]amino]spiro [cyclopentane-1,3′-pyrrolo[2,3-g]phthalazine]-2′-one]
4 | 7.41 nM | Cc1c([C@@H](C)Nc2nnc(C)c3cc4c(cc23)N(C2CC2)C(=O)C42CCOCC2)cccc1C(F)(F)CO [Compound 119, 1-cyclopropyl-5-methyl-8-[[(1R)-1-[3-(1,1-difluoro-2-hydroxy-ethyl)-2-methyl-phenyl]ethyl]amino]spiro[pyrrolo [2,3-g]phthalazine-3,4′-tetrahydropyran]-2-one]
5 | 16.2 nM | Cc1nnc(N[C@H](C)c2cccc(C(F)(F)CN)c2F)c2cc3c(cc12)n(C)c(=O)n3C [Compound 41, 1,3,8-trimethyl-5-[[(1R)-1-[3-(2-amino-1,1-difluoro-ethyl)-2-fluoro-phenyl]ethyl]amino]imidazo[4,5-g]phthalazin-2-one]
6 | 44.7 nM | Cc1c(C#N)cccc1[C@@H](C)Nc1nnc(C)c2cc3c(cc12)n(C)c(=O)n3C [Compound 39, 2-methyl-3-[(1R)-1-[(1,3,8-trimethyl-2-oxo-imidazo[4,5-g]phthalazin-5-yl)amino]ethyl]benzonitrile]
7 | 9.12 nM | CCOC1(C)C(=O)N(C)c2cc3c(N[C@H](C)c4cccc(C(F)(F)C(C)(C)O)c4C)nnc(C)c3cc21 (stereo partly drawn) [Compound 126, 3-ethoxy-1,3,5-trimethyl-8-[[(1R)-1-[3-(1,1-difluoro-2-hydroxy-2-methyl-propyl)-2-methyl-phenyl]ethyl]amino]pyrrolo[2,3-g]phthalazin-2-one]
8 | 9.33 nM | Cc1nnc(N[C@H](C)c2cccc(C(F)(F)CO)c2)c2cc3c(cc12)C(C)(C)C(=O)N3C(C)C [Compound 82, 1-isopropyl-3,3,5-trimethyl-8-[[(1R)-1-[3-(1,1-difluoro-2-hydroxy-ethyl)phenyl]ethyl]amino]pyrrolo [2,3-g]phthalazin-2-one]
9 | 18.6 nM | Cc1nnc(N[C@H](C)c2cccc(C(F)(F)CO)c2)c2cc3c(cc12)n(C)c(=O)n3C [Compound 6, 5-[[(1R)-1-[3-(1,1-difluoro-2-hydroxy-ethyl)phenyl]ethyl]amino]-1,3,8-trimethyl-imidazo[4,5-g]phthalazin-2-one]
10 | 7.76 nM | Cc1nnc(N[C@H](C)c2cccc(C(F)(F)CO)c2)c2cc3c(cc12)C1(CCOCC1)C(=O)N3C [Compound 88, 1,5-dimethyl-8-[[(1R)-1-[3-(1,1-difluoro-2-hydroxy-ethyl)phenyl]ethyl]amino]spiro [pyrrolo[2,3-g]phthalazine-3,4′-tetrahydropyran]-2-one]
11 | 44.7 nM | Cc1nnc(N[C@H](C)c2cccc(C(F)(F)F)c2)c2cc3c(cc12)OCC(=O)N3C [Compound 23, 4,9-dimethyl-6-[[(1R)-1-[3-(trifluoromethyl)phenyl]ethyl]amino]pyridazino[4,5-g][1,4]benzoxazin-3-one]
12 | 13.2 nM | Cc1c([C@@H](C)Nc2nnc(C)c3cc4c(cc23)C(C)(C)C(=O)N4C)cccc1C(F)(F)CO [Compound 97, 1,3,3,8-tetramethyl-5-[[(1R)-1-[3-(1,1-difluoro-2-hydroxy-ethyl)-2-methyl-phenyl]ethyl]amino]pyrrolo[3,2-g]phthalazin-2-one]
13 | 30.9 nM | Cc1c(-c2ccn[nH]2)cccc1[C@@H](C)Nc1nnc(C)c2cc3c(cc12)n(C)c(=O)n3C [Compound 155, 1,3,8-trimethyl-5-[[(1R)-1-[2-methyl-3-(1H-pyrazol-5-yl)phenyl]ethyl]amino]imidazo[4,5-g]phthalazin-2-one]
14 | 13.8 nM | Cc1c(C#N)cccc1[C@@H](C)Nc1nnc(C)c2cc3c(cc12)n(C1CC1)c(=O)n3C [Compound 47, 2-methyl-3-[(1R)-1-[(3-cyclopropyl-1,8-dimethyl-2-oxo-imidazo[4,5-g]phthalazin-5-yl)amino]ethyl]benzonitrile]
15 | 13.2 nM | Cc1nnc(N[C@H](C)c2cccc(C(F)(F)F)c2)c2cc3c(cc12)n(C)c(=O)n3CC(F)F [Compound 50, 3-(2,2-difluoroethyl)-1,8-dimethyl-5-[[(1R)-1-[3-(trifluoromethyl)phenyl]ethyl]amino] imidazo[4,5-g]phthalazin-2-one]

Continued, compound first:

Row | Structure (SMILES) | IC50
16 | Cc1nnc(N[C@H](C)c2cccc(C(F)(F)C(C)(C)O)c2)c2cc3c(cc12)n(C)c(=O)n3C(C)C [Compound 87, 3-isopropyl-1,8-dimethyl-5-[[(1R)-1-[3-(1,1-difluoro-2-hydroxy-2-methyl-propyl)phenyl]ethyl]amino]imidazo [4,5-g]phthalazin-2-one] | 8.51 nM
17 | Cc1c([C@@H](C)Nc2nnc(C)c3cc4c(cc23)n(C)c(=O)n4C)cccc1C(F)(F)F [Compound 54, 1,3,8-trimethyl-5-[[(1R)-1-[2-methyl-3-(trifluoromethyl)phenyl]ethyl]amino] imidazo[4,5-g]phthalazin-2-one] | 6.17 nM
18 | Cc1nnc(N[C@H](C)c2cccc(C(F)F)c2F)c2cc3c(cc12)n(C)c(=O)n3C(C)(C)C [Compound 27, 3-tert-butyl-1,8-dimethyl-5-[[(1R)-1-[3-(difluoromethyl)-2-fluoro-phenyl]ethyl]amino]imidazo[4,5-g]phthalazin-2-one] | 9.33 nM
19 | Cc1nnc(N[C@H](C)c2cccc(C(F)(F)C(C)(C)O)c2F)c2cc3c(cc12)C(C)(C)C(=O)N3C1CC1 [Compound 59, 1-cyclopropyl-3,3,5-trimethyl-8-[[(1R)-1-[3-(1,1-difluoro-2-hydroxy-2-methyl-propyl)-2-fluoro-phenyl]ethyl]amino]pyrrolo[2,3-g]phthalazin-2-one] | 7.94 nM
20 | Cc1nnc(N[C@H](C)c2cccc(C(F)(F)F)c2)c2cc3c(cc12)n(C)c(=O)n3CC#N [Compound 148, 2-[1,8-dimethyl-2-oxo-5-[[(1R)-1-[3-(trifluoromethyl)phenyl]ethyl]amino]imidazo[4,5-g]phthalazin-3-yl]acetonitrile] | 21.4 nM
21 | Cc1nnc(N[C@H](C)c2cccc(C(F)(F)CO)c2F)c2cc3c(cc12)n(C)c(=O)n3C(C)C [Compound 15, 3-isopropyl-1,8-dimethyl-5-[[(1R)-1-[3-(1,1-difluoro-2-hydroxy-ethyl)-2-fluoro-phenyl]ethyl]amino]imidazo[4,5-g]phthalazin-2-one] | 8.32 nM
22 | CCOC1(C)C(=O)N(C2CC2)c2cc3c(N[C@H](C)c4cccc(C(F)(F)C(C)(C)O)c4)nnc(C)c3cc21 (stereo partly drawn) [Compound 165, 1-cyclopropyl-3-ethoxy-3,5-dimethyl-8-[[(1R)-1-[3-(1,1-difluoro-2-hydroxy-2-methyl-propyl)phenyl]ethyl]amino]pyrrolo [2,3-g]phthalazin-2-one] | 10 nM
23 | Cc1nnc(N[C@H](C)c2cc(N)cc(C(F)(F)F)c2)c2cc3c(cc12)n(C)c(=O)n3C [Compound 4, 5-[[(1R)-1-[3-amino-5-(trifluoromethyl)phenyl]ethyl]amino]-1,3,8-trimethyl-imidazo[4,5-g]phthalazin-2-one] | 17 nM
24 | CCOC1(C)C(=O)N(C2CC2)c2cc3c(N[C@H](C)c4cccc(C(F)(F)CO)c4C)nnc(C)c3cc21 (stereo partly drawn) [Compound 167, 1-cyclopropyl-3-ethoxy-3,5-dimethyl-8-[[(1R)-1-[3-(1,1-difluoro-2-hydroxy-ethyl)-2-methyl-phenyl]ethyl]amino]pyrrolo[2,3-g]phthalazin-2-one] | 12.6 nM
25 | Cc1nnc(N[C@H](C)c2cccc(C(F)(F)CO)c2F)c2cc3c(cc12)C(C)(C)C(=O)N3C(C)C [Compound 110, 1-isopropyl-3,3,5-trimethyl-8-[[(1R)-1-[3-(1,1-difluoro-2-hydroxy-ethyl)-2-fluoro-phenyl]ethyl]amino]pyrrolo[2,3-g]phthalazin-2-one] | 7.08 nM
26 | COCCn1c(=O)n(C)c2cc3c(N[C@H](C)c4cccc(C(F)(F)F)c4)nnc(C)c3cc21 [Compound 17, 1-(2-methoxyethyl)-3,8-dimethyl-5-[[(1R)-1-[3-(trifluoromethyl)phenyl]ethyl]amino] imidazo[4,5-g]phthalazin-2-one] | 22.9 nM
27 | CCOC1(C)C(=O)N(C)c2cc3c(C)nnc(N[C@H](C)c4cccc(C(F)(F)C(C)(C)O)c4)c3cc21 (stereo partly drawn) [Compound 184, 3-ethoxy-1,3,8-trimethyl-5-[[(1R)-1-[3-(1,1-difluoro-2-hydroxy-2-methyl-propyl)phenyl]ethyl]amino]pyrrolo [3,2-g]phthalazin-2-one] | 14.8 nM
28 | Cc1c(-c2cc(C(F)(F)F)nn2C)cccc1[C@@H](C)Nc1nnc(C)c2cc3c(cc12)n(C)c(=O)n3C [Compound 152, 1,3,8-trimethyl-5-[[(1R)-1-[2-methyl-3-[2-methyl-5-(trifluoromethyl)pyrazol-3-yl]phenyl]ethyl]amino]imidazo[4,5-g]phthalazin-2-one] | 85.1 nM
